# Source: patent publication US8252832B2, “Kinesin inhibitors as cancer therapeutics” (Novartis AG, priority 2007, dated 2012)
# What was measured:
# [1] = system: HCT116 tumor xenograft; assay: HCT116 tumor xenograft model, tumor response; type: in vivo, mouse
# Description: The cell line HCT-116 has been widely used in the evaluation of mitotic inhibitors such as microtubule disruptors, mitotic kinase inhibitors and KSP inhibitors. […] Experiments were performed using outbred athymic nu/nu mice approximately 6-8 weeks old (Charles River Laboratories, Hollister, Calif.). […] Mice were housed 4-5 animals per cage in clear polycarbonate micro-isolator cages with a 12-hour light, 12-hour dark cycle at temperatures between 70-80 degrees Fahrenheit and 30-70% relative humidity. Food (Purina rodent chow pellets) and water were provided ad libitum. Mice were handled in accordance with Novartis ACUC regulations and guidelines and the ILAR Guide for the Care and Use of Laboratory Animals. Experiments were performed in an AAALAC accredited facility under an ACUC approved protocol.
# Compound IIa (free base) and SB-715992 (ispinesib, a KSP inhibitor by Cytokinetics that is in clinical trials; as its free base) were formulated in 20% Captisol® for all the above doses for a dose volume of 8 mL/kg. Doses were adjusted to each animal's body weight.
# Human HCT116 colon carcinoma cells were obtained from the National Cancer Institute's DCTD Tumor Repository (catalog #NCI-502568, Rockville, Md.) and tested to be free of Mycoplasma sp. and murine viruses in the IMPACT1 PCR assay panel (RADIL, University of Missouri, Columbia, Mo.). HCT116 cells were grown in RPMI 1640 with 2 mM L-glutamine (Mediatech Inc., catalog #15-040-CV) supplemented with 10% fetal bovine serum (JRH Biosciences, catalog #12003-1000M). These cells were grown as adherent cultures, maintained at 37° C. in a humidified atmosphere containing 5% carbon dioxide. Cells were cultured for fewer than 10 passages prior to use. Cells were harvested at 95% confluency, and centrifuged at ˜800×g for 5 minutes at 4° C. and then resuspended in a cold HBSS (Mediatech Inc., catalog #21-021-CV) at a concentration of 50 million cells/mL for implantation subcutaneously (injection volume of 0.1 mL).
# Female nu/nu mice (Charles River, Hollister, Calif.) were injected subcutaneously in the right flank with 5 million HCT-116 tumor cells suspended in Hank's Balanced Salt Solution (HBSS) in a total volume of 0.1 mL/mouse. For the efficacy studies, mice were randomized 10 days post-implant. […] Tumor volume was calculated as (L×W2)/2. […] Percent treatment/control (T/C) values were calculated using the following formula: % T/C=100×ΔT/ΔC
# All data were expressed as mean and SEM. Between-groups comparisons for final tumor measurements were performed using the one-way ANOVA pair-wise analysis. Significance was determined using Kruskal-Wallis one-way ANOVA on Ranks and Dunn's method for multiple pair-wise comparisons. Statistical analysis was carried out using SigmaStat (Systat Software Inc., San Jose, Calif.).
# [2] = Subcutaneous MV4; 11 tumor xenograft model, host response; type: in vivo, mouse
# Description: Subcutaneous tumor efficacy studies were performed using outbred athymic nu/nu mice approximately 6-8 weeks old (Charles River Laboratories, Hollister, Calif.). The efficacy study in the disseminated disease model was performed using immunodeficient NOD-SCID female mice approximately 7-8 weeks old (Jackson Laboratories, Bar Harbor, Me.). […] Routine animal care and assurance of welfare were as described above.
# The compound IIa (free base) and SB-715992 (free base) were formulated in 20% Captisol for a dose volume of 8 mL/kg. Doses were adjusted to each animal's body weight.
# For the two efficacy evaluations in the subcutaneous tumor model, 10 million cells combined in a 1:1 mixture of HBSS and Matrigel™ were injected subcutaneously in the right flank in a total volume of 0.2 mL/mouse. […] Tumor volume was calculated as (L×W2)/2.
# [3] = Study 2, 1.8 mg/kg, Q4d × 3, i.v, D10
# [4] = Study 2, 3.5 mg/kg, Q4d × 3, i.v, D3
# [5] = Study 2, 7.5 mg/kg, Q4d × 3, i.v, D10
smiles,measurement,setting,value
CC(C)(C)[C@H](c1nc(-c2cc(F)ccc2F)cn1Cc1ccccc1)N(CC[C@H](N)CF)C(=O)CO [Compound IIa],"T/C, Day 24 (%)","[1]; 0.125 mg/kg, i.v., q4d × 3",81%
same,"Δ Tumor volume, Day 24","[1]; 0.125 mg/kg, i.v., q4d × 3",809 ± 193 mm^3
same,anti-tumor effect,"[1]; 0.125 mg/kg, q4d×3",not significantly different from vehicle control
same,"T/C, Day 24 (%)","[1]; 0.25 mg/kg, i.v., q4d × 3",35%
same,"Δ Tumor volume, Day 24","[1]; 0.25 mg/kg, i.v., q4d × 3",382 ± 120 mm^3
same,"T/C, Day 24 (%)","[1]; 0.5 mg/kg, i.v., q4d × 3",14%
same,"Δ Tumor volume, Day 24","[1]; 0.5 mg/kg, i.v., q4d × 3",155 ± 145 mm^3
same,Max. % Regression (Day),"[1]; 0.5 mg/kg, i.v., q4d × 3, D14",8%
same,"Δ Tumor volume, Day 24","[1]; 1 mg/kg, i.v., q4d × 3",−34 ± 36 mm^3
same,Max. % Regression (Day),"[1]; 1 mg/kg, i.v., q4d × 3, D17",46%
same,"Δ Tumor volume, Day 17","[1]; 1.25 mg/kg, i.v., q4d × 3",−173 ± 12 mm^3
same,Max. % Regression (Day),"[1]; 1.25 mg/kg, i.v., q4d × 3, D20",66%
same,"Δ Tumor volume, Day 24","[1]; 2 mg/kg, i.v., q4d × 3",−141 ± 48 mm^3
same,Max. % Regression (Day),"[1]; 2 mg/kg, i.v., q4d × 3, D21",73%
same,"Δ Tumor volume, Day 17","[1]; 2.5 mg/kg, i.v., q4d × 3",−208 ± 17 mm^3
same,Max. % Regression (Day),"[1]; 2.5 mg/kg, i.v., q4d × 3, D20",82%
same,"Δ Tumor volume, Day 17","[1]; 5 mg/kg, i.v., q4d × 3 (only first two doses given)",−196 ± 11 mm^3
same,Max. % Regression (Day),"[1]; 5 mg/kg, i.v., q4d × 3 (only first two doses given), D20",73%
same,anti-tumor effect,"[1]; as low as 0.25 mg/kg, q4d×3, during the dosing interval",tumor stasis
same,Survival (alive/total),"[2]; 0.625 mg/kg, q4d × 3, i.v.",4/4
same,Survival (alive/total),"[2]; 4 mg/kg, q4d × 3, i.v.",9/9
same,Survival (alive/total),"[2]; Study 2, 0.13 mg/kg, q4d × 3, i.v",9/9
same,Survival (alive/total),"[2]; Study 2, 0.25 mg/kg, q4d × 3, i.v",9/9
same,Survival (alive/total),"[2]; Study 2, 0.5 mg/kg, q4d × 3, i.v",9/9
same,Survival (alive/total),"[2]; Study 2, 1 mg/kg, q4d × 3, i.v",9/9
same,Survival (alive/total),"[2]; Study 2, 2 mg/kg, q4d × 3, i.v",9/9
"CC(=O)O[C@H]1C(=O)[C@@]2(C)[C@H]([C@H](OC(=O)c3ccccc3)[C@]3(O)C[C@H](OC(=O)[C@H](O)[C@@H](NC(=O)c4ccccc4)c4ccccc4)C(C)=C1C3(C)C)[C@]1(OC(C)=O)CO[C@@H]1C[C@@H]2O [Paclitaxel, reference compound]","Δ Tumor volume, Day 17","[1]; 30 mg/kg, i.p., q4d × 3",−80 ± 3 mm^3
same,Max. % Regression (Day),"[1]; 30 mg/kg, i.p., q4d × 3, D17",31%
same,Survival (alive/total),"[2]; 1 mg/kg, q4d × 3, i.p.",9/9
"Cc1ccc(C(=O)N(CCCN)[C@@H](c2nc3cc(Cl)ccc3c(=O)n2Cc2ccccc2)C(C)C)cc1 [SB-715992, Ispinesib, reference compound]","T/C, Day 24 (%)","[1]; 1.75 mg/kg, i.v., q4d × 3",36%
same,"Δ Tumor volume, Day 24","[1]; 1.75 mg/kg, i.v., q4d × 3",395 ± 84 mm^3
same,"T/C, Day 17 (%)","[1]; 3.5 mg/kg, i.v., q4d × 3",5%
same,"T/C, Day 24 (%)","[1]; 3.5 mg/kg, i.v., q4d × 3",15%
same,"Δ Tumor volume, Day 17","[1]; 3.5 mg/kg, i.v., q4d × 3",39 ± 4 mm^3
same,"Δ Tumor volume, Day 24","[1]; 3.5 mg/kg, i.v., q4d × 3",165 ± 60 mm^3
same,Max. % Regression (Day),"[1]; 3.5 mg/kg, i.v., q4d × 3, D7",13%
same,Max. % Regression (Day),"[1]; 3.5 mg/kg, i.v., q4d × 3, D11",10%
same,"Δ Tumor volume, Day 17","[1]; 7.5 mg/kg, i.v., q4d × 3",−177 ± 55 mm^3
same,"Δ Tumor volume, Day 24","[1]; 7.5 mg/kg, i.v., q4d × 3",−145 ± 25 mm^3
same,Max. % Regression (Day),"[1]; 7.5 mg/kg, i.v., q4d × 3, D17",65%
same,Max. % Regression (Day),"[1]; 7.5 mg/kg, i.v., q4d × 3, D21",65%
same,"Δ Tumor volume, Day 17","[1]; 15 mg/kg, i.v., q4d × 3 (only first two doses given)",−205 ± 24 mm^3
same,Max. % Regression (Day),"[1]; 15 mg/kg, i.v., q4d × 3 (only first two doses given), D20",73%
same,Survival (alive/total),"[2]; 15 mg/kg, q4d × 3, i.v., (body weight loss)",7/9 (body
same,"% Max. Δ body weight, (Day)","[2]; 15 mg/kg, q4d × 3, i.v., D3",−5.6 ± 1.1%
same,Max Δ body weight (g) (Day),"[2]; 15 mg/kg, q4d × 3, i.v., D3",-1.4 ± 0.3 g
same,Survival (alive/total),"[2]; Study 2, 1.8 mg/kg, Q4d × 3, i.v",9/9
same,"% Max. Δ body weight, (Day)",[2]; [3],"2.0 ± 1.0, %"
same,Max. Δ body weight (g) (Day),[2]; [3],"0.5 ± 0.4, g"
same,Survival (alive/total),"[2]; Study 2, 3.5 mg/kg, Q4d × 3, i.v",9/9
same,"% Max. Δ body weight, (Day)",[2]; [4],"0.7 ± 0.3, %"
same,Max. Δ body weight (g) (Day),[2]; [4],"0.2 ± 0.3, g"
same,Survival (alive/total),"[2]; Study 2, 7.5 mg/kg, Q4d × 3, i.v",9/9
same,"% Max. Δ body weight, (Day)",[2]; [5],"−1.4 ± 1.3, %"
same,Max. Δ body weight (g) (Day),[2]; [5],"−0.4 ± 0.8, g"
